Measurements as given in patent US20190134000A1, “COMPOUNDS TO PROMOTE NORMAL PROCESSING OF APP” (Buck Institute for Research on Aging, priority 2016, published 2019).
“Also recorded” adds a separate entry of the source.

How the values were obtained:
α7 = α7 (Homo sapiens, UniProt P36544); assay: Target binding α7
5-HT3 = molecular target: T1, 5-HT3 (Homo sapiens, UniProt P46098); assay: Target binding 5-HT3
T1 sequence (P46098 24-478): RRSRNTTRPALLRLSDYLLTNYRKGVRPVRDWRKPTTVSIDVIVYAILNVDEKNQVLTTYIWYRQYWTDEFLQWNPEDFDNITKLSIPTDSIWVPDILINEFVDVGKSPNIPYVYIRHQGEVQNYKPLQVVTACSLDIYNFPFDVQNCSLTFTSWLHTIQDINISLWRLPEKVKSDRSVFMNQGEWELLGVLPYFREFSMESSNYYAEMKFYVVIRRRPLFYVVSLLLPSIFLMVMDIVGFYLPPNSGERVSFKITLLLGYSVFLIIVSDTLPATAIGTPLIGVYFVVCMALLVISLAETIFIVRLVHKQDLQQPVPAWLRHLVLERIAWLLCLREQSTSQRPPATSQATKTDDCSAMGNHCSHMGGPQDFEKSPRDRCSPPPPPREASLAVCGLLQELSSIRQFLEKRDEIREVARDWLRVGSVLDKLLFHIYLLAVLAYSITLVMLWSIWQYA

sAPPα in SH-SY5Y cells = assay: Primary screen, effect on sAPPα in SH-SY5Y cells (AlphaLISA); format: cell-based, human; conditions: ↑ increase
Description: (§1) Compound C41 was initially identified by screening a library of compounds in a series of steps. First compounds were screened in a primary screen to determine the effect on sAPPα in SH-SYSY cells (see, e.g., FIG. 4). Compounds that elicited an increase in sAPPα of at least 10% were subjected to a secondary screen in CHO-7W cells for their effect on sAPPα and Aβ (see, e.g., FIG. 5).

[1] = test system: sAPPα, Aβ1-42 in CHO-7W cells; assay: Secondary screen, sAPPα and Aβ in CHO-7W cells; format: cell-based
Description: as §1

[2] = Panel binding test (Cerep broad screening panel)
hERG receptor = hERG receptor (Homo sapiens, UniProt Q12809); format: binding
[3] = test system: muscarinic acetylcholine receptors; assay: Muscarinic receptor binding in panel; conditions: panel binding test
in vitro = assay: in vitro
Description: The second batch of C41 was tested for plasma protein binding, ADME-tox screening (microsomal intrinsic clearance), and ADME-tox screening (CYP inhibition screen). PK in rats was determined to determine a dose of non-GLP Pharm-Tox screening. Additionally, acute toxicity in rats (pre-subchronic toxicity) and non-GLP subchronic toxicity was determined.

CYP2C9 = CYP2C9 (Homo sapiens, UniProt P11712); assay: CYP inhibition screen CYP2C9; format: in vitro ADME
CYP2C19 = CYP2C19 (Homo sapiens, UniProt P33261); assay: CYP inhibition screen CYP2C19; format: in vitro ADME
in vivo = conditions: rat
Description: Top panel: Levels after oral delivery at 10 mk at 1, 8, and 24 hours; levels after oral delivery at 40 mk at 24 hours only. Bottom panel: IV delivery at 2.5 mk. Note brain levels in ng/g, plasma levels in ng/ml.
FIG. 13 illustrates C41 pharmacokinetic parameters in rat.
C41 pharmacokinetics were determined in a rat (see, FIG. 12, Table 9). […] Brain tissue was collected at 1, 8, and 24 hours. Plasma peak was 150 ng/ml and brain was 3251 ng/g. C41 peaked at 8 hours. […] Brain tissue was collected at 30 min, 6 hours, and 24 hours. Plasma peak was 564 ng/ml, at 1 minute and brain peak was 629 ng/g at 30 minutes. The 30 minute brain:plasma ratio was 8. Oral availability was determined to be about 100% (see, e.g. FIG. 13).

AD mouse model = assay: Synaptic load, synaptophysin labeling of hippocampus; format: in vivo
Description: FIG. 16 illustrates mechanistic confirmation studies for determination of synaptic load.
Mechanistic confirmation studies for determination of synaptic load were performed using antibody-labeling of synaptophysin with a green fluorescent tag. […] The improvements in NLR and NOR may be correlated to the restoration of synaptic load, increases in sAPPα or the sAPPα/sAPPβ ratio; increases in the sAPPα/Aβ1-42 ratio; decreases in the p-tau/tau ratio, and/or decreases in APPneo (c-terminal cleavage).

S9 stability, monkey = format: in vitro ADME
S9 stability, dog = format: in vitro ADME
S9 stability, rat = format: in vitro ADME

Chain of CYP2C19 (P33261 whole entry): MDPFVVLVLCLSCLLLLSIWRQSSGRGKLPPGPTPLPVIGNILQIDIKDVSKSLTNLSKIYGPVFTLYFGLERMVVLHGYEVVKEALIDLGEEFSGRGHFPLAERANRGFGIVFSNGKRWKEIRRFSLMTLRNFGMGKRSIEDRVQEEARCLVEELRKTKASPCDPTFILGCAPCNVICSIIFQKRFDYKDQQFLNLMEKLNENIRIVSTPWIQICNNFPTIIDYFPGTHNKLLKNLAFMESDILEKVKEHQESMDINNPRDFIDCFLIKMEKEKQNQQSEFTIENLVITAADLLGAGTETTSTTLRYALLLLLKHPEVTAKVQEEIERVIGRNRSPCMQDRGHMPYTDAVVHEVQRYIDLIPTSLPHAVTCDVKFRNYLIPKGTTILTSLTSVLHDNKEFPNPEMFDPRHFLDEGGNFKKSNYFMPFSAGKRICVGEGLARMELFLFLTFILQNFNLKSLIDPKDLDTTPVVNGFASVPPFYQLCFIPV
Chain of CYP2C9 (P11712 whole entry): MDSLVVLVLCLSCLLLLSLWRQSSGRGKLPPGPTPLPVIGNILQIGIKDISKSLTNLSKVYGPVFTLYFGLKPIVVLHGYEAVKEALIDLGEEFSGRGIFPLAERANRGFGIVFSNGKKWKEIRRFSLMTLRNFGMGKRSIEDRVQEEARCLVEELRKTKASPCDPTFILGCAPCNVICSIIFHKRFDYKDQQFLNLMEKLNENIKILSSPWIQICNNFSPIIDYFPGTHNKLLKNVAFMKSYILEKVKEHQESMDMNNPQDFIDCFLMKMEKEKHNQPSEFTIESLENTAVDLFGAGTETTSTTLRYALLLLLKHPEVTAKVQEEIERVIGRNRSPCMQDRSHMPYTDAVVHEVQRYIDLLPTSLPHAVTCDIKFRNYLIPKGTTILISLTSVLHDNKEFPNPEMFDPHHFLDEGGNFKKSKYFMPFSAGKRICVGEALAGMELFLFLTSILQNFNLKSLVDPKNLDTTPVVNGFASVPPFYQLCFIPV
Chain of α7 (P36544 23-502): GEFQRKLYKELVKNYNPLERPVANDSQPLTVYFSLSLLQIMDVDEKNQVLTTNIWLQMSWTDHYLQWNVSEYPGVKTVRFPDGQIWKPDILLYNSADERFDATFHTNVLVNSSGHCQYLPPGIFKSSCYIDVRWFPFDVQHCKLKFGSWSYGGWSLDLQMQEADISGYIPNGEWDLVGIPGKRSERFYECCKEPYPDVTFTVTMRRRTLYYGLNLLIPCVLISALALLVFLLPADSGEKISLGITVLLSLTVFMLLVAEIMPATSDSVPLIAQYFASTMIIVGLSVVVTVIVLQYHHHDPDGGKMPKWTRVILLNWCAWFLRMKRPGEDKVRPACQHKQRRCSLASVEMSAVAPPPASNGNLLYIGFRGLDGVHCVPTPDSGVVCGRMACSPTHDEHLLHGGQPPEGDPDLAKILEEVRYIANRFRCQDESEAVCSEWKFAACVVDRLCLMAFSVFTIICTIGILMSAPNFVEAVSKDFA
Chain of hERG receptor (Q12809 whole entry): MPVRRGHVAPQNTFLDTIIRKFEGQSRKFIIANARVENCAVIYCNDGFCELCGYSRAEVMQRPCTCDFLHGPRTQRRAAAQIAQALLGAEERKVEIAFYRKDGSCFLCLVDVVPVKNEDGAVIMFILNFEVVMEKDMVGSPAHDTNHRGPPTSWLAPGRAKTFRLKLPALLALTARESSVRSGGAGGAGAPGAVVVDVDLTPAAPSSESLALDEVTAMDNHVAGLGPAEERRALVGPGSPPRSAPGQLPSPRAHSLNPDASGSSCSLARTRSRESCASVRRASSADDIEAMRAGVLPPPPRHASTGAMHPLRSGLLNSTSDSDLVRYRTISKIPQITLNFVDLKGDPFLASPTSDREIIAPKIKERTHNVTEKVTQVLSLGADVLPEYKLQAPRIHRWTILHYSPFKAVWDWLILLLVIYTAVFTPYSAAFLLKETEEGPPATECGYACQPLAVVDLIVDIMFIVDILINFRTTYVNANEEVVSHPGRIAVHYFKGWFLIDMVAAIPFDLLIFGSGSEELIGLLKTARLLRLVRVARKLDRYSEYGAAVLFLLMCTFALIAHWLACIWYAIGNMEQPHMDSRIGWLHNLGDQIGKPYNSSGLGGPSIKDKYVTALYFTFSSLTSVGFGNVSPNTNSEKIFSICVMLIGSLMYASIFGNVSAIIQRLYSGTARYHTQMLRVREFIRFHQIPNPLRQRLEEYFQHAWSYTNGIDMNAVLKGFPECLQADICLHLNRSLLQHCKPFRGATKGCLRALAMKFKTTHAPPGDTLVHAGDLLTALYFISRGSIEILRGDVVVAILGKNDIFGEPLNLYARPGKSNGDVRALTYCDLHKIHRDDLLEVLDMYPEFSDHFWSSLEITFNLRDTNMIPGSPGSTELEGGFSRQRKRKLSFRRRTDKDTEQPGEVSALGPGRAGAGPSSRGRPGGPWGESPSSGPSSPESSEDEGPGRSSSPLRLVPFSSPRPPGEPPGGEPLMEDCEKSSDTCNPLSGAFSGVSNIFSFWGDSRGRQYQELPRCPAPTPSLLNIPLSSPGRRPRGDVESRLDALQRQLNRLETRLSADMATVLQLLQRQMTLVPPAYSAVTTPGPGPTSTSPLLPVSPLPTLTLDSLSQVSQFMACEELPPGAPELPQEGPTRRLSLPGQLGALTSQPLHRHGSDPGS

SMILES: CN1[C@@H]2CC[C@H]1C[C@@H](OC(=O)c1c[nH]c3cc(F)ccc13)C2 [Compound C41, (1R,3R,5S)-8-methyl-8-azabicyclo[3.2.1]octan-3-yl 6-fluoro-1H-indole-3-carboxylate]
- Target α7 (α7): 1100 nM
- Kd (5-HT3): ~0.003 µM
- Target 5-HT3 (5-HT3; target binding): 5 nM
- Primary Screen (SH-SY5Y) sAPPα (sAPPα in SH-SY5Y cells): ↑~20%
- Secondary Screen (CHO-7W) sAPPα ([1]; ↑ increase): ↑>20%
- Secondary Screen (CHO-7W) sAppα/Aβ ([1]; ↑ increase of ratio): ↑>50%
- Secondary Screen (CHO-7W) Aβ1-42 ([1]; ↓ decrease): ↓>20%
- profile in panel binding test / activity in broad screening panel [2]: clean profile; also recorded: Overall clean
- binding to hERG receptor (hERG receptor): no binding
- binding to muscarinic acetylcholine receptors [3]: only weak binding; also recorded: profile. Some
- microsomal CLint at 1 μM (in vitro; dog, microsomes, NADPH-Dependent CLint): 45.7 µL/min/mg
- half-life at 1 μM (in vitro; dog, microsomes, NADPH-Dependent T1/2): 0.843 h
- microsomal CLint at 1 μM (in vitro; dog, microsomes, NADPH-Free CLint): < 9.6 µL/min/mg
- half-life at 1 μM (in vitro; dog, microsomes, NADPH-Free T1/2): > 4 h
- Plasma protein binding (in vitro; human): 74.3 (human)
- recovery (in vitro; human): 115%
- half-life (in vitro; human, microsomes): > 4 h
- half-life at 1 μM (in vitro; human, microsomes): > 4 h
- microsomal CLint at 1 μM (in vitro; human, microsomes): < 9.6 µL/min/mg
- NADPH-Free CLint (in vitro; human, microsomes, 1 μM): <9.6 µL/min/mg
- NADPH-Free T1/2 (in vitro; human, microsomes, 1 μM): >4 h
- Mean Plasma Fraction Bound (in vitro; human, plasma): 74.3%
- fraction unbound (in vitro; human, plasma): 0.257
- microsomal CLint at 1 μM (in vitro; rat, microsomes, NADPH-Dependent CLint): 187 µL/min/mg
- half-life at 1 μM (in vitro; rat, microsomes, NADPH-Dependent T1/2): 0.207 h
- microsomal CLint at 1 μM (in vitro; rat, microsomes, NADPH-Free CLint): < 9.6 µL/min/mg
- half-life at 1 μM (in vitro; rat, microsomes, NADPH-Free T1/2): > 4 h
- IC50 (CYP2C9): > 30 µM
- inhibition at 10 µM (CYP2C9; human): 11.4%
- inhibition at 30 µM (CYP2C9; human): 21.6%
- IC50 (CYP2C19): > 30 µM
- inhibition at 10 µM (CYP2C19; human): 0%
- inhibition at 30 µM (CYP2C19; human): 0%
- Oral availability (in vivo): about 100%
- bioavailability (in vivo): ~98%
- AUC (0-t) (in vivo; iv): AUC (0-t) ng-min/g = 400605.0
- AUC(0-t) (in vivo; iv): 330 ng·h/mL
- Clearance (CL) (in vivo; iv): Clearance (CL) g/min/Kg = 0.006.
- Kp at 0.5 h (in vivo; iv): 8
- Volume of distribution steady state (in vivo; iv): g/Kg = 2.9.
- clearance (in vivo; iv): 112 mL/min/kg
- AUC (in vivo; iv, 2.5 mg/kg): 373 ng·h/mL
- MRT (in vivo; iv, 2.5 mg/kg, MRT): 6.63 h
- Cmax (in vivo; iv, Cmax): 629 ng/g
- Cmax (in vivo; iv, Cmax plasma): 564 ng/mL
- MRT (in vivo; iv, Mean residence time (MRT)): 6.64 h
- MRT (in vivo; iv, Mean residence time (MRT) area): 8.33 h
- AUC (0-t) (in vivo; po): AUC (0-t) ng-min/g = 793672.5
- AUC(0-t) (in vivo; po): 1970 ng·h/mL
- Clearance (CL) (in vivo; po): Clearance (CL) g/min/Kg = 0.087.
- T1/2 elimination (in vivo; po): T1/2 elimination = 154.022 min.
- clearance (in vivo; po): 84 mL/min/kg
- time of peak (in vivo; po): 8 h
- AUC (in vivo; po, 10 mg/kg): 1970 ng·h/mL
- MRT (in vivo; po, 10 mg/kg, MRT): 21.7 h
- Cmax (in vivo; po, Cmax): 3250 ng/g
- Cmax (in vivo; po, Cmax plasma): 150 ng/mL
- half-life (in vivo; po, T1/2 elimination): 2.41 h
- Tmax (in vivo; po, Tmax): 6.33 h
- Tmax (in vivo; po, Tmax oral): 8 h
- synaptic load / synaptic density in hippocampus (AD mouse model): restore synaptic density; also recorded: restored synaptic load
- Metabolic Half-Life Monkey S9 (S9 stability, monkey): >1 h
- half-life (S9 stability, monkey): > 1 h
- half-life (S9 stability, dog): 0.668 h
- half-life (S9 stability, rat): 0.363 h
